According to publication PMC8877291, “Design and Synthesis of Arylpiperazine Serotonergic/Dopaminergic Ligands with Neuroprotective Properties” (Molecules, 2022):

Tests used:
[1] = target: T1, serotonin 5-HT1A receptor (Homo sapiens, UniProt P08908); experiment: 5-HT1A receptor radioligand competition binding ([3H]-8-Hydroxy-DPAT); details: human cloned receptor, HEK293 membranes, 1 nM [3H]-8-Hydroxy-DPAT; ± S.E.M., n = 3 in duplicate; read-out: Affinity Ki 5-HT1A
T1 construct: expressed in transfected cells
T1 sequence (P08908 1-422): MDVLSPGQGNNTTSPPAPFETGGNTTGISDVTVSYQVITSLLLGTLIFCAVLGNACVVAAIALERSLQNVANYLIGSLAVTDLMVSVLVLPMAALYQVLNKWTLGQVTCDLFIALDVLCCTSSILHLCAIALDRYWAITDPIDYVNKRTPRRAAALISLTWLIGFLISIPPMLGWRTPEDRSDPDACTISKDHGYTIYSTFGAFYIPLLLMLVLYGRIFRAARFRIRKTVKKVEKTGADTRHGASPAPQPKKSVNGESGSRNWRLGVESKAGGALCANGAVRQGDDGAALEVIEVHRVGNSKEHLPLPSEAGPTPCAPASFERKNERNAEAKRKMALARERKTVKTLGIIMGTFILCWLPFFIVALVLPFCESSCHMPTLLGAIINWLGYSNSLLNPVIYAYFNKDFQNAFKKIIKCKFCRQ
Protocol: (§1) As a first step, competition radioligand binding assays were carried out for all the compounds at the single concentration of 10 µM, on membrane preparations from stable cell lines heterologously expressing the human cloned 5-HT1A, 5-HT2A, or 5-HT7 receptors. […] For the affinity determination at dopamine receptor subtypes, membrane fractions of human dopamine D2s, D3, D1, and D5 receptor-expressing cells were used. They were co-incubated with [^3H]spiperone (for D2s and D3 receptor) or [^3H]SCH23390 (for D1 and D5 receptor) and appropriate concentrations of test compound for 120 min. Bound radioligand was separated from the free ligand using filtration. Radioactivity was measured by liquid scintillation counting.
The affinity of the compounds for serotonin 5-HT1A receptor was evaluated in membrane preparations from HEK293 cells stably expressing the human cloned receptor, following previously described procedures with minor modifications. Competition binding experiments were performed using 1 nM [^3H]-8-Hydroxy-DPAT (1 mCi/mL, PerkinElmer NET929250UC) as radioligand. Nonspecific binding was assessed in the presence of 10 µM serotonin. […] Assays were carried out in duplicate in 96-well assay plates, in assay buffer (50 mM Tris-HCl, 5 mM MgSO4, pH = 7.4). Assay mixtures were incubated at 37 °C for 120 min, followed by filtration through GF/C glass filter plates, and washed with ice-cold wash buffer (50 mM Tris-HCl, pH = 7.4).

dopamine D5 receptor = target: T2, dopamine D5 receptor (Homo sapiens, UniProt P21918); experiment: Dopamine D5 receptor competition binding ([3H]-SCH23390); details: HEK-293 membranes, [3H]-SCH23390 0.3 nM, mean (CI 95%), read-out: Affinity Ki D5
T2 construct: expressed in transfected cells
Protocol: as §1, with “The final compounds were tested for their affinity at serotonin 5-HT1A, 5-HT2A, and 5-HT7 receptors and at dopamine D1, D2, D3, and D5 receptors. As” for “As”
(§2) The affinity for dopamine D1 and D5 receptors was evaluated in membrane fractions of HEK-293 cells stably expressing the human dopamine D1 or D5 receptor. HEK-293-D1 cells were cultured in DMEM/F12 (15 mM HEPES, 1.2 g/L NaHCO3) with 10% (v/v) FBS and 1% (v/v) L-glutamine. HEK-293-D5 cells were cultured in DMEM/F12 (with L-glutamine, 1.2 g/L NaHCO3) with 20% (v/v) FBS. Preparation of membrane fractions and radioligand competition assays were performed as previously described. Briefly, membrane fractions were co-incubated with [^3H]-SCH23390 (0.3 nM) and different concentrations of test compound for 120 min at room temperature. Fluphenazine (100 µM) was used to determine non-specific binding and as reference compound.
(§3) Data of at least three independent experiments in triplicate were analyzed using GraphPad Prism 8.1 (San Diego, CA, USA). Binding curves were fitted to a non-linear regression model (one-site competition). Ki values were calculated from IC50 values using the Cheng–Prusoff equation. The statistical calculations were performed on –log(Ki).

[2] = target: T3, serotonin 5-HT2A receptor (Homo sapiens, UniProt P28223); experiment: 5-HT2A receptor radioligand competition binding ([3H]-ketanserin); details: human cloned receptor, CHO-K1 membranes, 1 nM [3H]-ketanserin; ± S.E.M., n = 3 in duplicate; read-out: Affinity Ki 5-HT2A
T3 construct: expressed in transfected cells

[3] = Stability assay in rat liver microsomes; assay type: in vitro ADME; details: pH 7.4; rat liver microsomes, 30 min incubation, NADPH-regenerating system, 10 μM; read-out: Metabolic Stability (percentage of recovery of the parent compound)
Protocol: To evaluate the susceptibility to first-pass oxidative metabolism, the leading cause of metabolic degradation in vivo [17] the target compounds were incubated with rat liver microsomes. The turnover of the parent compound was assessed as the percentage of the parent compound recovered after 30 min of incubation with microsomes in the presence of an NADPH-regenerating system.
Test compounds were pre-incubated at 37 °C with rat liver microsomes (Tebu-Bio, Milan, Italy) (1.0 mg/mL microsomal protein) at 10 μM final concentration in 100 mM potassium phosphate buffer (pH 7.4) for 10 min. Metabolic reactions were initiated by the addition of the NADPH regenerating system (containing 10 mM NADP, 50 mM glucose-6-phosphate, and 10 unit/mL glucose-6-phosphate dehydrogenase, final glucose-6-phosphate dehydrogenase concentration, 1 unit/mL). After 30 min incubation, the reaction mixture was quenched by adding an equal volume of cold acetonitrile containing the internal standard. A test compound incubated with microsomes without NADPH regenerating system was included. Quenched samples were centrifuged at 4500 rpm for 15 min and the supernatants were injected for quantification analysis. Samples (100 μL) were analyzed by using an Agilent 1260 Infinity Binary LC System equipped with a diode array detector (Open Lab software was used to analyze the chromatographic data) and a Phenomenex Gemini C-18 column (250 mm × 4.6 mm, 5 μm particle size). The samples were eluted using CH3CN/20 mM ammonium formate pH 5.5 (7:3, v/v) as eluent (volumetric flow rate =1 mL/min). Concentrations were quantified by measuring the area under the peak.
The percentage of the parent compound remaining after a 30-min incubation was calculated according to the equation:% of parent compound remaining after 30 min = Cparent/Ccontrol × 100(1) where Cparent is ligand concentration after incubation with microsome fraction and NADPH regenerating system and Ccontrol is ligand concentration after incubation with microsome fraction only.

dopamine D1 receptor = target: T4, dopamine D1 receptor (Homo sapiens, UniProt P21728); experiment: Dopamine D1 receptor competition binding ([3H]-SCH23390); details: HEK-293 membranes, [3H]-SCH23390 0.3 nM, mean (CI 95%), read-out: Affinity Ki D1
T4 construct: expressed in transfected cells
Protocol: as §1, with “The final compounds were tested for their affinity at serotonin 5-HT1A, 5-HT2A, and 5-HT7 receptors and at dopamine D1, D2, D3, and D5 receptors. As” for “As”
as §2, §3

dopamine D3 receptor = dopamine D3 receptor (Homo sapiens, UniProt P35462); experiment: Dopamine D3 receptor competition binding ([3H]spiperone)
Protocol: (§4) Competition binding experiments at dopamine D2s and D3 receptor were performed to determine the affinity of the compounds. […] Membrane preparations of transfected CHO-K1 cells stably expressing the human D2s or D3 receptor were performed according to Bautista-Aguilera et al. [26]. The competition binding experiments were conducted as previously reported [26, 27]. Briefly, membrane fractions (D2sR: 25 µg/200 µL; D3R: 20 µg/200 µL) were incubated with [^3H]spiperone (0.2 nM) and test compound for 120 min at room temperature. […] Non-specific binding was determined in the presence of 10 µM haloperidol. Haloperidol was also used as reference compound. Separation of the bound ligand from the free ligand was conducted by filtration through GF/B filters using deionized water.

dopamine D2s receptor = dopamine D2s receptor (Homo sapiens, UniProt P14416); experiment: Dopamine D2s receptor competition binding ([3H]spiperone)
Protocol: as §4

[4] = target: T5, serotonin 5-HT7 receptor (5-HT7A) (Homo sapiens, UniProt P34969); experiment: 5-HT7 receptor radioligand competition binding ([3H]-SB269970); details: human cloned 5-HT7A receptor, HEK293 membranes, 2 nM [3H]-SB269970; ± S.E.M., n = 3 in duplicate; read-out: Affinity Ki 5-HT7
T5 construct: expressed in transfected cells
Protocol: as §1
The affinity of the compounds for serotonin 5-HT7 receptor was evaluated in membrane preparations from HEK293 cells stably expressing the human cloned 5-HT7A receptor, following previously described procedures with minor modifications. Competition binding experiments were performed using 2 nM [^3H]-SB269970 (34.5 Ci/mmol, 0.25 mCi/mL, Perkin Elmer NET1198U250UC) as radioligand. […] Methiothepine was included in the assays as reference compound. Assays were carried out in duplicate in 96-well assay plates, in assay buffer (50 mM Tris-HCl, 4 mM MgCl2, 1 mM ascorbic acid, 0.1 mM pargyline, pH = 7.4). Assay mixtures were incubated at 37 °C for 60 min, followed by filtration through GF/C glass filter plates, and washing with ice-cold assay buffer. Affinity (equilibrium dissociation constant, Ki) of the compounds was calculated from competition binding curves as indicated above.

Sequence of dopamine D3 receptor (P35462 whole entry): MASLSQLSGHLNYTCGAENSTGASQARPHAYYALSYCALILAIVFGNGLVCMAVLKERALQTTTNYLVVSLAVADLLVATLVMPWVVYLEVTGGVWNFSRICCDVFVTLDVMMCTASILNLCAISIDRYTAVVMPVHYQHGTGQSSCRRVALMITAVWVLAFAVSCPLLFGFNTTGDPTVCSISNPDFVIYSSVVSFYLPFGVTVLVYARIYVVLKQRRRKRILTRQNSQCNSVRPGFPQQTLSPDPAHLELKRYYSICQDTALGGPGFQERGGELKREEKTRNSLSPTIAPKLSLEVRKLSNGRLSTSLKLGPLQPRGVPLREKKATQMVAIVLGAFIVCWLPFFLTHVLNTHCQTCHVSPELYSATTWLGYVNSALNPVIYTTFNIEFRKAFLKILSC
Sequence of dopamine D2s receptor (P14416 1-414 isoform P14416-2): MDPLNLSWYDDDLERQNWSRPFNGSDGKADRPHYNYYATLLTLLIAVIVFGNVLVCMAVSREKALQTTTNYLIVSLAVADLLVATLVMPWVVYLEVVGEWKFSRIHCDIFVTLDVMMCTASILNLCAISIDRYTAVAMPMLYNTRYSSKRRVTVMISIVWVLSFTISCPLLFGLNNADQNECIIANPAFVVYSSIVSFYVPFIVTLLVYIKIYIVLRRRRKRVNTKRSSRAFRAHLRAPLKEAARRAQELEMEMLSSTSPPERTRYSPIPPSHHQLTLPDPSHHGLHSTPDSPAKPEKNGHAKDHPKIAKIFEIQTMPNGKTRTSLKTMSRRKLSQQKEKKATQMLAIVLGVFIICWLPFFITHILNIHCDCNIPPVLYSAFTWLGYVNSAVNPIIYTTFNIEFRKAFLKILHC
T2 sequence (P21918 whole entry): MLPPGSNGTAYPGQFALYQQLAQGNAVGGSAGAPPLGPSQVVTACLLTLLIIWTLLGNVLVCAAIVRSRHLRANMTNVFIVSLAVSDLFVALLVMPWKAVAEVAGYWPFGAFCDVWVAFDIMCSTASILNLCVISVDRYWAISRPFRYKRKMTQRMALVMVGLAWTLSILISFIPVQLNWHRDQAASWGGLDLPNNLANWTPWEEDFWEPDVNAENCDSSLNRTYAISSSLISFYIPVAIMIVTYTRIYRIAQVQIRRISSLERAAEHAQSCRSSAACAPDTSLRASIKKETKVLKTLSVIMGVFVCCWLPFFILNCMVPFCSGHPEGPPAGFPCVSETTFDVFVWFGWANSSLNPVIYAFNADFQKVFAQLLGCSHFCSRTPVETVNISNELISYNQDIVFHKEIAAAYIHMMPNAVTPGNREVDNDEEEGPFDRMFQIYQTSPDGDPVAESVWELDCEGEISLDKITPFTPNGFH
T4 sequence (P21728 whole entry): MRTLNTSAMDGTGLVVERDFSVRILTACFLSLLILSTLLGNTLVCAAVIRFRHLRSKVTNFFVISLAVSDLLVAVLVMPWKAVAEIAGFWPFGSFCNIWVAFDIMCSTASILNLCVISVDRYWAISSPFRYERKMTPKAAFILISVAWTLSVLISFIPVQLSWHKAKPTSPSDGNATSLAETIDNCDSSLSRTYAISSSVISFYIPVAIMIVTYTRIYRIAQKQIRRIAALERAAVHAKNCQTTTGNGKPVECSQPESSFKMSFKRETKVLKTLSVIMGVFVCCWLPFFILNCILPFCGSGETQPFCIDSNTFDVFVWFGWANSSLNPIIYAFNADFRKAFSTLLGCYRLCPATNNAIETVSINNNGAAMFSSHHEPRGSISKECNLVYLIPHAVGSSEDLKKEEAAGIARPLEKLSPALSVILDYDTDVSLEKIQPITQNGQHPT
T3 sequence (P28223 whole entry): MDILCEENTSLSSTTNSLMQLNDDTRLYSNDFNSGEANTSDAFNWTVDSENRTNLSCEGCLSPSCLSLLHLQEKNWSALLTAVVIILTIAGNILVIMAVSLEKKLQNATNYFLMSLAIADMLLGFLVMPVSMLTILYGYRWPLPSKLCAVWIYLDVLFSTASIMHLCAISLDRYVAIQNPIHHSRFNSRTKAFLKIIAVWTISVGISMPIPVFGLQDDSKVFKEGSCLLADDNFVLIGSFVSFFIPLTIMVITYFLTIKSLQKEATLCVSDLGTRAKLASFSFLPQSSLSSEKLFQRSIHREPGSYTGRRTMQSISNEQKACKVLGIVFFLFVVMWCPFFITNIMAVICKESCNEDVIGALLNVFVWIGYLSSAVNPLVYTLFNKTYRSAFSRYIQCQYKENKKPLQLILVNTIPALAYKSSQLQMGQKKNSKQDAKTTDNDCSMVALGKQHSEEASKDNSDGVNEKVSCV
T5 sequence (P34969 1-445 isoform P34969-2): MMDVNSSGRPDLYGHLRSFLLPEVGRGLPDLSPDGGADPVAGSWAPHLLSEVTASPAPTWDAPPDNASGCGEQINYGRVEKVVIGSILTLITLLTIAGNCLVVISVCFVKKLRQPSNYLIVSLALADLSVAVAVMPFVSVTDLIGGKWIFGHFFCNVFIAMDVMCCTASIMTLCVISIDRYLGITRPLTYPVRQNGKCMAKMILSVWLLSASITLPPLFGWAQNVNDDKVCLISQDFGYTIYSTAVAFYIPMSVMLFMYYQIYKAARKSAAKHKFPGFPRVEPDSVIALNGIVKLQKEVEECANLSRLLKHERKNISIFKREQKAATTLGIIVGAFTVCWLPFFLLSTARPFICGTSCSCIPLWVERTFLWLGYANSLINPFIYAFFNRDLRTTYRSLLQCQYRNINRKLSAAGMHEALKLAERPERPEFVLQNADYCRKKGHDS

COc1ccc(-c2cc(F)ccc2N2CCN(CCCn3ncc(=O)n(C)c3=O)CC2)cc1 [Compound 9a, 2-(3-(4-(5-Fluoro-4’-methoxy-[1,1’-biphenyl]-2-yl)piperazin-1-yl)propyl)-4-methyl-1,2,4-triazine-3,5(2H,4H)-dione]
Ki [1]: 653 ± 95 nM
Ki (dopamine D5 receptor): 413 nM
Ki [2]: 49.1 ± 12 nM
remaining at 30 min, 10 μM [3]: < 3%
Ki (dopamine D1 receptor): 193 nM
Ki (dopamine D3 receptor): > 10000 nM
Ki (dopamine D2s receptor): > 10000 nM
Ki [4]: 60.8 ± 7.1 nM
